Results reported in patent US20160151366A1, “Compositions and Methods for Treating Autism Spectrum Disorders” (Vanderbilt University, priority 2014, published 2016).
“Also recorded” adds a separate entry of the source.

Tests used:
IL-1β = settings: in vivo treatment; cited from earlier work
[1] = tested on: SERT Ala56 mice and WT littermates; test: Biogenic monoamine levels within the CNS by HPLC; assay type: in vivo; settings: i.p., QD×1 wk
Excerpt: FIG. 17A-C. […] Respective brain sections were flash frozen and monoamine levels determined by HPLC. […] 5-Hydoxytryptamine (5-HT), Dopamine (DA), Norepinephrine (NE)
FIG. 19A-C. […] Respective brain sections were flash frozen and monoamine levels determined by HPLC. […] 5-Hydoxytryptamine (5-HT), Dopamine (DA), Norepinephrine (NE)
Respective brain sections were flash frozen and monoamine levels determined by HPLC.

SERT Ala56 mice [2] = test: DOI-induced head twitch (5-HT2A receptor hypersensitivity); assay type: in vivo; settings: for CNS 5-HT2A receptor hypersensitivity (DOI-induced head-twitch response): adult SERT Ala56 mice, chronic administration, dose not stated; for SERT Ala56-mediated increases in DOI-induced head twitches: QD×1 wk
Excerpt: Two-Way ANOVA, followed by post-hoc Bonferroni's multiple comparison tests. *p<0.05, **p<0.01
FIG. 20A-B. […] Two-Way ANOVA, followed by post-hoc Bonferroni's multiple comparison tests. **p<0.01, ***p<0.001

SERT Ala56 mice [3] = test: 8-OH-DPAT-induced hypothermia (5-HT1A receptor hypersensitivity); assay type: in vivo
Excerpt: Similarly, both drugs normalize 5-HT1A receptor hypersensitivity seen in adult SERT Ala56 mice as monitored by 8-OHDPAT induced hypothermia responses. […] […].

[4] = tested on: SERT Ala56 mice and WT counterparts; test: Midbrain expression of SERT after chronic treatment; assay type: in vivo; settings: 10 mg/kg, QD, i.p.×1 wk; SERT Ala56 mice or WT counterparts
SERT Ala56 mice [5] = test: Tube Test for Social Dominance; assay type: in vivo; settings: for SERT Ala56 mediated social deficits in the Tube Test: SERT Ala56 mice; for Effect of treatment on its own in the Tube Test: wildtype mice, chronic treatment 1 week
Excerpt: FIG. 9. […] SERT Ala56 mice display social deficits in the Tube Test compared to their SERT Gly56 littermates.
FIG. 10. […] SERT Ala56 mice display social deficits in the Tube Test compared to their SERT Gly56 littermates.
FIG. 11. […] Chi Square analysis with Yate's Correction. n.s.=not significant, *p<0.05, ***p<0.001
FIG. 12. […] Chi Square analysis with Yate's Correction. n.s.=not significant, *p<0.05, ***p<0.001
Chi Square analysis with Yate's Correction. n.s.=not significant, *p<0.05, ***p<0.001
As described herein, SERT Ala56 mice have deficits in social behaviors in the Tube Test for Social Dominance. Studies were also conducted to determine the effect of specific p38 MAPK inhibitors on social deficits in the animal of ASD. Mice were treated with either saline or a specific p38 MAPK inhibitor for one week.
SERT Ala56 mice display social deficits in the Tube Test compared to their SERT Gly56 littermates.

[6] = chronic 10 mg/kg, i.p., DOI 1.0 mg/kg
[7] = chronic treatment for 1 week, dose not stated

SMILES	LPS-induced increases in IL-1β within the CNS (IL-1β)	Biogenic monoamine levels (5-HT, DA, NE) in midbrain, hippocampal or frontal cortex samples ([1]; 10 mg/kg)	CNS 5-HT2A receptor hypersensitivity (DOI-induced head-twitch response) (SERT Ala56 mice [2])	SERT Ala56-mediated increases in DOI-induced head twitches (SERT Ala56 mice [2]; [6])	SERT Ala56-mediated potentiation of 8-OH-DPAT-induced hypothermia (SERT Ala56 mice [3]; i.p., QD×1 wk, dose not stated)	Midbrain expression of SERT [4]	SERT Ala56 mediated social deficits in the Tube Test (SERT Ala56 mice [5]; 10 mg/kg, i.p., QD×1 wk)	SERT Ala56 mediated social deficits in the Tube Test (SERT Ala56 mice [5]; [7])	Effect of treatment on its own in the Tube Test (SERT Ala56 mice [5])	Biogenic monoamine levels (5-HT, DA, NE) in midbrain, hippocampal or frontal cortex samples ([1]; 5 mg/kg)	SERT Ala56-mediated increases in DOI-induced head twitch (SERT Ala56 mice [2]; acute, single treatment 5 mg/kg, i.p., DOI 1.0 mg/kg)	SERT Ala56-mediated increases in DOI-induced head twitches (SERT Ala56 mice [2]; chronic 5 mg/kg, i.p., DOI 1.0 mg/kg)	SERT Ala56-mediated potentiation of 8-OH-DPAT-induced hypothermia (SERT Ala56 mice [3]; 5 mg/kg, i.p. QD×1 wk)	SERT Ala56-mediated potentiation of 8-OH-DPAT-induced hypothermia (SERT Ala56 mice [3]; 10 mg/kg, i.p. QD×1 wk)	SERT Ala56 mediated social deficits in the Tube Test (SERT Ala56 mice [5]; 5 mg/kg, i.p., QD×1 wk)
CN(C)c1cc(-c2ccncc2)c(-c2ccc3ccccc3c2)nn1 [MW108]	attenuate lipopolysaccharide (LPS)-induced increases in IL-1β	No differences between genotype or treatment group were found	normalize CNS 5-HT2A receptor hypersensitivity	dose-dependently attenuates	reduced this effect, albeit insignificantly	No changes in SERT expression	dose-dependently attenuate	reverses these social deficits; also recorded: reverse social behavior deficits	no effect on its own; also recorded: Neither dose of MW108 was found to exert any effects on its own; also recorded: Neither dose of MW108 or MW150 was found to exert any effects on their own	–	–	–	–	–	–
CN1CCN(c2cc(-c3ccncc3)c(-c3ccc4ccccc4c3)nn2)CC1 [MW150]	–	–	normalize CNS 5-HT2A receptor hypersensitivity	mitigates	–	–	attenuates SERT Ala56-mediated social deficits	reverses these social deficits; also recorded: reverse social behavior deficits	no effects on its own; also recorded: Neither dose of MW150 was found to exert any effects on its own; also recorded: Neither dose of MW108 or MW150 was found to exert any effects on their own	No differences between genotype or treatment group were found	not capable of reversing; also recorded: failed to mitigate	mitigates	attenuates	attenuates	attenuates SERT Ala56-mediated social deficits; also recorded: reverses these social deficits
